Measurements: ChEMBL document CHEMBL2407041, “Identification of potent Yes1 kinase inhibitors using a library screening approach” (Bioorg Med Chem Lett, 2013)

What was measured:
[1] = biological target: T1, Tyrosine-protein kinase Yes (Homo sapiens, UniProt P07947); assay: Inhibition of Yes1 (unknown origin) by [gamma-33P]-ATP radiolabeled enzyme activity assay
[2] = biological target: T1, Tyrosine-protein kinase Yes; assay: Inhibition of Yes1 (unknown origin) assessed as kinase-dependent enzymatic production of ADP from ATP using coupled luminescence-based reaction by ADP-Glo kinase assay
[3] = Antiproliferative activity against human Rh30 cells after 48 hrs by CellTiter-Glo luminescent assay; details: SJRH30, 48 h
RD = assay: Antiproliferative activity against human RD cells after 48 hrs by CellTiter-Glo luminescent assay

T1 sequence (P07947 whole entry): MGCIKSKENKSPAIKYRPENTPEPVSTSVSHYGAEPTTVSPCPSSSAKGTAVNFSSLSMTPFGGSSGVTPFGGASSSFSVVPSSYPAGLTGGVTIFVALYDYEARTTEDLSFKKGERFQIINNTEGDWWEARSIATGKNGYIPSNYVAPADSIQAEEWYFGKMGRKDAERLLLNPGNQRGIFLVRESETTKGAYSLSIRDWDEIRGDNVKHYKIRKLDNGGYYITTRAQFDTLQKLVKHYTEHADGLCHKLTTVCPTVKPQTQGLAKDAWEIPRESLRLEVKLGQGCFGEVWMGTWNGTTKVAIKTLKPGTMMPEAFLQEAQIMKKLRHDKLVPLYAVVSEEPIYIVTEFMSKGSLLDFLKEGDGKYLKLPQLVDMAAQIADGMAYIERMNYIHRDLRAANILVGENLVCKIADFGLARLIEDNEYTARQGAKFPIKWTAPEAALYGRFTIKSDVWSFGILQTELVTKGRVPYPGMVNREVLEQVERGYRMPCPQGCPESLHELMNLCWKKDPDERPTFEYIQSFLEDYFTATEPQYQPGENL

SMILES | IC50 [1] | IC50 [2] | IC50 [3] | IC50 (RD)
c1cc(-c2cnn3cc(-c4ccc(OCCN5CCCCC5)cc4)cnc23)ccn1 [DORSOMORPHIN] | 29.8 nM | 196 nM |  | 
CC(C)Oc1cc(Nc2nc(N[C@@H](C)c3ccc(F)cn3)ncc2Cl)n[nH]1 | 3 nM | 39.1 nM | 1800 nM | 5300 nM
CN1CCC(CNc2ccc3ncc(-c4cccc(OC(F)(F)F)c4)n3n2)CC1 [SGI-1776] | 240 nM | 2670 nM |  | 
